In patent US12649750B2, “Macrocyclic compounds, compositions, and methods of using thereof” (Sionna Therapeutics Inc., priority 2022, dated 2026):
Read-outs that look alike come from different tables or passages of the source.

C=CS(=O)(=O)CC(C)(C)CCC[C@](C)(c1cccc(C[C@H](C)C(=O)OC)c1)c1nc(-c2cc(Oc3cc4cc[nH]c4c(F)c3F)ccc2F)n(C)n1
ring closure, isolated yield (the molecule shown is the open-chain precursor, cc_pd bond, 20-membered ring, Pd(OAc)2/Cu(OAc)2, DMF/DMSO 9:1, 1.36 mM, 70.0 °C): 20%

O=Cc1c(Oc2ccc(F)c(-c3ncc(C(CCCCCCS(=O)(=O)CC(=O)O)c4cccc(I)c4)[nH]3)c2)c(F)cc2[nH]ccc12 (stereo not shown)
ring closure, isolated yield (the molecule shown is the open-chain precursor, other bond, 19-membered ring, piperidine/AcOH, toluene, 2.7 mM, 100.0 °C): 10%

Diastereomer 1 of methyl 3-methoxy-2-(3-((R,1^4Z,5E)-2^6,4^6,4^7-trifluoro-1^1,9,9,13-tetramethyl-4^1-(methylsulfonyl)-7,7-dioxido-1^1H,4^1H-3,7-dithia-4(5,4)-indola-1(5,3)-triazola-2(1,3)-benzenacyclotridecaphan-5-en-13-yl)benzyl)propanoate
ring closure, isolated yield (cc_pd bond, 18-membered ring, chloro[(tBu3P)(2-aminobiphenyl-2-yl)Pd(II)]/tBu3P-HBF4/Cy2NMe, toluene, 16.8 mM, 120.0 °C): 68%

methyl (2R)-3-[3-[(14E)-23,29-difluoro-7,11,11-trimethyl-13,13-dioxo-20-(p-tolylsulfonyl)-25-oxa-13 6-thia-5,6,20-triazapentacyclo[24.3.1.02,6.016,24.017,21]triaconta-1(30),2,4,14,16,18,21,23,26,28-decaen-7-yl]phenyl]-2-methyl-propanoate
ring closure, isolated yield (cc_pd bond, 17-membered ring, Pd(PtBu3)2/Et3N, toluene, 0.65 mM, 100.0 °C): 23%
